Test results reported in PMC11672547, “Combination of Coevolutionary Information and Supervised Learning Enables Generation of Cyclic Peptide Inhibitors with Enhanced Potency from a Small Data Set” (ACS Central Science, 2024).
Numbered stars: 1 amine (or outer) side, 2 acyl side, 3 side chain; on linkers, the order of the positions; unused ones are H or OH. Bridge positions count the residues as written; N and C are the ends. Peptide text beside a SMILES is read from it. TBMB = c1c(C[*:1])cc(C[*:3])cc1C[*:2]

Each compound was assayed against T1, human urokinase-type plasminogen activator (huPA) (Homo sapiens, UniProt P00749) (assay: huPA inhibition, fluorogenic enzyme activity assay (Z-Gly-Gly-Arg-AMC), Ki by Cheng-Prusoff). Conditions: 25 °C, pH 7.4, substrate 50 μM, mean ± S.E. of at least three measurements, read-out: Ki.
T1 construct: (UPA-LMW, Molecular Innovations, Novi, MI, USA) 1.5 nM; purchased Molecular Innovations UPA-LMW
Format: biochemical
Method: bicyclic peptides. The activity assay was performed by incubating […] huPA with 50 μM fluorogenic substrate Z-Gly-Gly-Arg-AMC (50 μM; Bachem, Bubendorf, Switzerland) and […]
NaCl, 10 mM MgCl2, 1mM CaCl2, 0.1% w/v BSA, 0.01% v/v Triton-X100 and 5% v/v DMSO.
The measurements were performed on a Tecan microplate reader (Tecan infinite 200 pro, Tecan Trading AG, Switzerland) using black microfluor 96-well plate Nunc MicroWell, (Thermo Fisher Scientific, Dreieich, Germany) The enzymatic reactions were performed at 25 °C for 30 min, under shacking with an excitation wavelength of 355 nm and an emission recording at 460 nm. The initial velocities were monitored as changes in fluorescence intensity. The sigmoidal curves were fitted to the data using the following non-linear regression equation for the inhibitory dose-response curves with variable slope (2): […]
where x is the peptide concentration, y is the residual percentage of protease activity and p is the hill slope. Half maximum inhibitory concentration (IC50) values were derived from the fitted curves from GraphPad Prism 8 8.0.0. software (GraphPad software, Inc., San Diego, California). The final Ki was subsequently determined using the Cheng-Prusoff equation (3): […]
where Km (115 μM) is the Michaelis constant for the hydrolysis of Z-Gly-Gly-Arg-AMC catalysed by huPA which has been determined by standard Michaelis-Menten equation.
Values were determined using either OriginPro 8G software (OriginLab Corporation, Northamppton, MA, USA) or GraphPad Prism 8.0.0. software (GraphPad software, Inc., San […]
Recombinant production of the catalytic domain of human urokinase-type […]
The low molecular weight (LMW) human urokinase-type plasminogen activator (huPA) comprising the truncated 23 amino acid peptide fragment of chain A (Lys136-Lys158 in […]

Ki	Compound
94.7 ± 0.3 nM	CC(C)[C@@H]1NC(=O)CNC(=O)CNC(=O)[C@H](CCCNC(=N)N)NC(=O)CNC(=O)[C@H](CCCNC(=N)N)NC(=O)[C@@H]2CSCc3cc(cc(c3)CSC[C@@H](C(=O)NCC(N)=O)NC1=O)CSC[C@H](NC(=O)[C@H](C)N)C(=O)N[C@@H](CC(=O)O)C(=O)N[C@@H](CCCNC(=N)N)C(=O)N[C@@H](Cc1ccccc1)C(=O)N[C@@H](C(C)C)C(=O)N[C@@H](C(C)C)C(=O)N[C@@H](CC(=O)O)C(=O)N2 [UK956] (H-ACDRFVVDCRGRGGVCG-NH2; linker 2-9-16 via TBMB)
7.4 ± 0.9 nM	CC(C)[C@@H]1NC(=O)[C@H](Cc2ccccc2)NC(=O)[C@H](CCCNC(=N)N)NC(=O)[C@H](CC(=O)O)NC(=O)[C@@H](NC(=O)[C@H](C)N)CSCc2cc3cc(c2)CSC[C@@H](C(=O)NCC(N)=O)NC(=O)[C@@H]2CCCN2C(=O)CNC(=O)CNC(=O)[C@H](CCCNC(=N)N)NC(=O)CNC(=O)[C@H](CCCNC(=N)N)NC(=O)[C@H](CSC3)NC(=O)[C@H](CC(=O)O)NC(=O)[C@H](C(C)C)NC1=O [UK957] (H-ACDRFVVDCRGRGGPCG-NH2; linker 2-9-16 via TBMB)
154.9 ± 1 nM	CC(C)[C@@H]1NC(=O)[C@H](CO)NC(=O)CNC(=O)[C@H](CCCNC(=N)N)NC(=O)CNC(=O)[C@H](CCCNC(=N)N)NC(=O)[C@@H]2CSCc3cc(cc(c3)CSC[C@@H](C(=O)NCC(N)=O)NC1=O)CSC[C@H](NC(=O)[C@H](C)N)C(=O)N[C@@H](CC(=O)O)C(=O)N[C@@H](CCCNC(=N)N)C(=O)N[C@@H](Cc1ccccc1)C(=O)N[C@@H](C(C)C)C(=O)N[C@@H](C(C)C)C(=O)N[C@@H](CC(=O)O)C(=O)N2 [UK958] (H-ACDRFVVDCRGRGSVCG-NH2; linker 2-9-16 via TBMB)
77.5 ± 0.2 nM	CC(C)[C@@H]1NC(=O)[C@H](Cc2ccccc2)NC(=O)[C@H](CCCNC(=N)N)NC(=O)[C@H](CC(=O)O)NC(=O)[C@@H](NC(=O)[C@H](C)N)CSCc2cc3cc(c2)CSC[C@@H](C(=O)NCC(N)=O)NC(=O)[C@@H]2CCCN2C(=O)[C@H](CO)NC(=O)CNC(=O)[C@H](CCCNC(=N)N)NC(=O)CNC(=O)[C@H](CCCNC(=N)N)NC(=O)[C@H](CSC3)NC(=O)[C@H](CC(=O)O)NC(=O)[C@H](C(C)C)NC1=O [UK959] (H-ACDRFVVDCRGRGSPCG-NH2; linker 2-9-16 via TBMB)
81.2 ± 0.3 nM	CC(C)[C@@H]1NC(=O)CNC(=O)CNC(=O)[C@H](CCCNC(=N)N)NC(=O)CNC(=O)[C@H](CCCNC(=N)N)NC(=O)[C@@H]2CSCc3cc(cc(c3)CSC[C@@H](C(=O)NCC(N)=O)NC1=O)CSC[C@H](NC(=O)[C@H](C)N)C(=O)N[C@@H](CC(=O)O)C(=O)N[C@@H](CCCNC(=N)N)C(=O)N[C@@H](Cc1ccccc1)C(=O)N[C@@H](CCC(=O)O)C(=O)N[C@@H](C(C)C)C(=O)N[C@@H](CC(=O)O)C(=O)N2 [UK960] (H-ACDRFEVDCRGRGGVCG-NH2; linker 2-9-16 via TBMB)
16.2 nM	CC(C)[C@@H]1NC(=O)[C@H](CCC(=O)O)NC(=O)[C@H](Cc2ccccc2)NC(=O)[C@H](CCCNC(=N)N)NC(=O)[C@H](CC(=O)O)NC(=O)[C@@H](NC(=O)[C@H](C)N)CSCc2cc3cc(c2)CSC[C@@H](C(=O)NCC(N)=O)NC(=O)[C@@H]2CCCN2C(=O)CNC(=O)CNC(=O)[C@H](CCCNC(=N)N)NC(=O)CNC(=O)[C@H](CCCNC(=N)N)NC(=O)[C@H](CSC3)NC(=O)[C@H](CC(=O)O)NC1=O [UK961] (H-ACDRFEVDCRGRGGPCG-NH2; linker 2-9-16 via TBMB)
18.1 ± 0.3 nM	CC(C)[C@@H]1NC(=O)[C@H](CCC(=O)O)NC(=O)[C@H](Cc2ccccc2)NC(=O)[C@H](CCCNC(=N)N)NC(=O)[C@H](CO)NC(=O)[C@@H](NC(=O)[C@H](C)N)CSCc2cc3cc(c2)CSC[C@@H](C(=O)NCC(N)=O)NC(=O)[C@@H]2CCCN2C(=O)CNC(=O)CNC(=O)[C@H](CCCNC(=N)N)NC(=O)CNC(=O)[C@H](CCCNC(=N)N)NC(=O)[C@H](CSC3)NC(=O)[C@H](CC(=O)O)NC1=O [UK967] (H-ACSRFEVDCRGRGGPCG-NH2; linker 2-9-16 via TBMB)

Further lines, the compound ahead of its results:

Compound	Ki
CC(C)[C@@H]1NC(=O)[C@H](CCC(=O)O)NC(=O)[C@H](Cc2ccc(O)cc2)NC(=O)[C@H](CCCN=C(N)N)NC(=O)[C@H](CO)NC(=O)[C@@H](NC(=O)[C@H](C)N)CSCc2cc3cc(c2)CSC[C@H](NC(=O)[C@H](CC(=O)O)NC1=O)C(=O)N[C@@H](CCCN=C(N)N)C(=O)NCC(=O)N[C@@H](CCCN=C(N)N)C(=O)NCC(=O)N[C@@H](CO)C(=O)N[C@@H](C)C(=O)N[C@H](C(=O)NCC(N)=O)CSC3 [UK18, reference compound] (H-ACSRYEVDCRGRGSACG-NH2; linker 2-9-16 via TBMB)	54.7 ± 8 nM
CC(C)[C@@H]1NC(=O)[C@H](CO)NC(=O)CNC(=O)[C@H](CCCNC(=N)N)NC(=O)CNC(=O)[C@H](CCCNC(=N)N)NC(=O)[C@@H]2CSCc3cc(cc(c3)CSC[C@@H](C(=O)NCC(N)=O)NC1=O)CSC[C@H](NC(=O)[C@H](C)N)C(=O)N[C@@H](CC(=O)O)C(=O)N[C@@H](CCCNC(=N)N)C(=O)N[C@@H](Cc1ccccc1)C(=O)N[C@@H](CCC(=O)O)C(=O)N[C@@H](C(C)C)C(=O)N[C@@H](CC(=O)O)C(=O)N2 [UK962] (H-ACDRFEVDCRGRGSVCG-NH2; linker 2-9-16 via TBMB)	81 ± 7.9 nM
CC(C)[C@@H]1NC(=O)[C@H](CCC(=O)O)NC(=O)[C@H](Cc2ccccc2)NC(=O)[C@H](CCCNC(=N)N)NC(=O)[C@H](CC(=O)O)NC(=O)[C@@H](NC(=O)[C@H](C)N)CSCc2cc3cc(c2)CSC[C@@H](C(=O)NCC(N)=O)NC(=O)[C@@H]2CCCN2C(=O)[C@H](CO)NC(=O)CNC(=O)[C@H](CCCNC(=N)N)NC(=O)CNC(=O)[C@H](CCCNC(=N)N)NC(=O)[C@H](CSC3)NC(=O)[C@H](CC(=O)O)NC1=O [UK963] (H-ACDRFEVDCRGRGSPCG-NH2; linker 2-9-16 via TBMB)	81.4 ± 0.9 nM
CC(C)[C@@H]1NC(=O)[C@H](CCC(=O)O)NC(=O)[C@H](Cc2ccc(O)cc2)NC(=O)[C@H](CCCNC(=N)N)NC(=O)[C@H](CO)NC(=O)[C@@H](NC(=O)[C@H](C)N)CSCc2cc3cc(c2)CSC[C@@H](C(=O)NCC(N)=O)NC(=O)[C@@H]2CCCN2C(=O)[C@H](CO)NC(=O)CNC(=O)[C@H](CCCNC(=N)N)NC(=O)CNC(=O)[C@H](CCCNC(=N)N)NC(=O)[C@H](CSC3)NC(=O)[C@H](CC(=O)O)NC1=O [UK964] (H-ACSRYEVDCRGRGSPCG-NH2; linker 2-9-16 via TBMB)	31.4 ± 0.1 nM
CC(C)[C@@H]1NC(=O)[C@H](CCC(=O)O)NC(=O)[C@H](Cc2ccc(O)cc2)NC(=O)[C@H](CCCNC(=N)N)NC(=O)[C@H](CO)NC(=O)[C@@H](NC(=O)[C@H](C)N)CSCc2cc3cc(c2)CSC[C@@H](C(=O)NCC(N)=O)NC(=O)[C@@H]2CCCN2C(=O)CNC(=O)CNC(=O)[C@H](CCCNC(=N)N)NC(=O)CNC(=O)[C@H](CCCNC(=N)N)NC(=O)[C@H](CSC3)NC(=O)[C@H](CC(=O)O)NC1=O [UK965] (H-ACSRYEVDCRGRGGPCG-NH2; linker 2-9-16 via TBMB)	12.3 ± 1 nM
CC(C)[C@@H]1NC(=O)[C@H](CCC(=O)O)NC(=O)[C@H](Cc2ccc(O)cc2)NC(=O)[C@H](CCCNC(=N)N)NC(=O)[C@H](CC(=O)O)NC(=O)[C@@H](NC(=O)[C@H](C)N)CSCc2cc3cc(c2)CSC[C@@H](C(=O)NCC(N)=O)NC(=O)[C@@H]2CCCN2C(=O)CNC(=O)CNC(=O)[C@H](CCCNC(=N)N)NC(=O)CNC(=O)[C@H](CCCNC(=N)N)NC(=O)[C@H](CSC3)NC(=O)[C@H](CC(=O)O)NC1=O [UK966] (H-ACDRYEVDCRGRGGPCG-NH2; linker 2-9-16 via TBMB)	11.6 ± 1.2 nM
